Values of other authors in US20200289439A1, “Process of Manufacturing a Stable, Ready To Use Infusion Bag For An Oxidation Sensitive Formulation” (InnoPharma Licensing, LLC, priority 2013, published 2020).

Legend:
[1] = intravenous; therapeutic dosing, up to 4,000 mg daily
[2] = six adult volunteers

CC(=O)Nc1ccc(O)cc1 [Acetaminophen, N-(4-hydroxyphenyl)acetamide]
hepatotoxicity [1]: rarely associated with hepatotoxicity | mean intravenous Cmax compared to oral route ([2]; intravenous vs oral): nearly two | mean intravenous Cmax compared to rectal route ([2]; intravenous vs rectal): four fold higher
